Source: ChEMBL document CHEMBL1240392 (Antimicrob Agents Chemother, 2010)
Values after ≈ are worked out from the molar mass of the structure shown. Values belong to the compound of their own block, whether it stands above or below them. Active and inactive are the calls of the source. No cut-off for these calls is given here.

Legend:
[1] = Half life in C57BL/6 mouse pneumonia model at 30 mg/kg, im; assay type: ADME, organism-based; set-up: dose 30 mg/kg, route intramuscular; details: in vivo
[2] = Half life in New Zealand rabbit meningitis model at 120 mg/kg, im; assay type: ADME, organism-based, Oryctolagus cuniculus; set-up: dose 120 mg/kg, route intramuscular; details: in vivo
[3] = AUC in New Zealand rabbit meningitis model at 120 mg/kg, im; assay type: ADME, organism-based, Oryctolagus cuniculus; set-up: dose 120 mg/kg, route intramuscular; details: in vivo
[4] = Cmax in C57BL/6 mouse pneumonia model at 30 mg/kg, im; assay type: ADME, organism-based; set-up: dose 30 mg/kg, route intramuscular; details: in vivo
in vivo = details: New Zealand, rabbit, im, 120 mg/kg
Description: Cmax in New Zealand rabbit meningitis model at 120 mg/kg, im

[5] = AUC in C57BL/6 mouse pneumonia model at 30 mg/kg, im; assay type: ADME, organism-based; set-up: dose 30 mg/kg, route intramuscular; details: in vivo
[6] = Ratio of Cmax to MIC for Acinetobacter baumannii 1327 in pharmacokinetic-pharmacodynamic New Zealand rabbit meningitis model at 120 mg/kg, im; assay type: functional; details: route intramuscular
[7] = T>MIC in Acinetobacter baumannii infected New Zealand rabbit meningitis model at 120 mg/kg, im; assay type: functional; details: route intramuscular
Acinetobacter baumannii [8] = assay: Antimicrobial activity against Acinetobacter baumannii clinical isolate; assay type: functional
[9] = T>MIC in Acinetobacter baumannii infected C57BL/6 mouse pneumonia model at 30 mg/kg, im; assay type: functional; details: route intramuscular
Acinetobacter baumannii [10] = assay: Antimicrobial activity against Acinetobacter baumannii 506 after 24 hrs by time-kill assay; assay type: functional, organism-based
[11] = Ratio of AUC to MIC for Acinetobacter baumannii 1327 in pharmacokinetic-pharmacodynamic New Zealand rabbit meningitis model at 120 mg/kg, im; assay type: functional; details: route intramuscular
Acinetobacter baumannii [12] = assay: Antimicrobial activity against Acinetobacter baumannii 506; assay type: functional
Acinetobacter baumannii [13] = assay: Antimicrobial activity against Acinetobacter baumannii 1417 after 24 hrs by time-kill assay; assay type: functional, organism-based
Acinetobacter baumannii [14] = assay: Antimicrobial activity against Acinetobacter baumannii 940 after 24 hrs by time-kill assay; assay type: functional, organism-based
[15] = Ratio of Cmax to MIC for Acinetobacter baumannii 1327 in pharmacokinetic-pharmacodynamic C57BL/6 mouse pneumonia model at 30 mg/kg, im; assay type: functional; details: route intramuscular
Acinetobacter baumannii [16] = assay: Antibacterial activity against Acinetobacter baumannii infected in C57BL/6 mouse model assessed as survival rate at total dose of 120 mg/kg/day, im administered as four divided doses measured after 72 hrs post last dose relative to control; assay type: functional; details: route intramuscular
Acinetobacter baumannii [17] = assay: Antimicrobial activity against Acinetobacter baumannii 1417; assay type: functional
[18] = Ratio of AUC to MIC for Acinetobacter baumannii 1327 in pharmacokinetic-pharmacodynamic C57BL/6 mouse pneumonia model at 30 mg/kg, im; assay type: functional; details: route intramuscular
Acinetobacter baumannii [19] = assay: Antimicrobial activity against Acinetobacter baumannii 1327 after 24 hrs by time-kill assay; assay type: functional, organism-based
Acinetobacter baumannii [20] = assay: Antimicrobial activity against Acinetobacter baumannii infected in C57BL/6 mouse model assessed as reduction in bacterial count per gram of lung at total dose of 120 mg/kg/day, im administered as four divided doses after 72 hrs (RVb = 10.6+/-0.27); assay type: functional, organism-based
Acinetobacter baumannii [21] = assay: Antimicrobial activity against Acinetobacter baumannii infected in C57BL/6 mouse model assessed as reduction in bacterial count in blood at total dose of 120 mg/kg/day, im administered as four divided doses after 72 hrs; assay type: functional; set-up: scale not given: the % may be the effect or the level left; details: route intramuscular
Acinetobacter baumannii [22] = assay: Antimicrobial activity against Acinetobacter baumannii 940; assay type: functional
Acinetobacter baumannii [23] = assay: Antimicrobial activity against Acinetobacter baumannii 1327; assay type: functional
Acinetobacter baumannii [24] = assay: Antibacterial activity against Acinetobacter baumannii 1327 infected in New Zealand rabbit meningitis model assessed as reduction in bacterial count in CSF at 25 mg/kg, iv measured after 4 hrs of last dose (RVb = 5.2); assay type: functional
Acinetobacter baumannii [25] = assay: Antibacterial activity against Acinetobacter baumannii 1327 infected in New Zealand rabbit meningitis model assessed as reduction in bacterial count in CSF at 25 mg/kg, iv measured after 6 hrs of last dose (RVb = 5.5); assay type: functional
Acinetobacter baumannii [26] = assay: Antibacterial activity against Acinetobacter baumannii 1327 infected in New Zealand rabbit meningitis model assessed as reduction in bacterial count in CSF at 25 mg/kg, iv measured after 2 hrs of last dose (RVb = 5.1); assay type: functional
Acinetobacter baumannii [27] = assay: Antimicrobial activity against Acinetobacter baumannii infected in C57BL/6 mouse model assessed as reduction in bacterial count per gram of lung at total dose of 100 mg/kg/day, ip administered as four divided doses after 72 hrs (RVb = 10.6+/-0.27); assay type: functional, organism-based
[28] = T>MIC in Acinetobacter baumannii infected C57BL/6 mouse pneumonia model at 25 mg/kg, iv; assay type: functional
[29] = T>MIC in Acinetobacter baumannii infected New Zealand rabbit meningitis model at 25 mg/kg, iv; assay type: functional
[30] = AUC in C57BL/6 mouse pneumonia model at 25 mg/kg, ip; assay type: ADME, organism-based; set-up: dose 25 mg/kg, route intraperitoneal; details: in vivo
[31] = Cmax in New Zealand rabbit meningitis model at 25 mg/kg, iv; assay type: ADME, organism-based, Oryctolagus cuniculus; set-up: dose 25 mg/kg, route intravenous; details: in vivo
Acinetobacter baumannii [32] = assay: Antibacterial activity against Acinetobacter baumannii infected in C57BL/6 mouse model assessed as survival rate at total dose of 100 mg/kg/day, ip administered as four divided doses measured after 72 hrs post last dose; assay type: functional; details: route intraperitoneal
[33] = Cmax in C57BL/6 mouse pneumonia model at 25 mg/kg, ip; assay type: ADME, organism-based; set-up: dose 25 mg/kg, route intraperitoneal; details: in vivo
[34] = AUC in New Zealand rabbit meningitis model at 25 mg/kg, iv; assay type: ADME, organism-based, Oryctolagus cuniculus; set-up: dose 25 mg/kg, route intravenous; details: in vivo
Acinetobacter baumannii [35] = assay: Antimicrobial activity against Acinetobacter baumannii infected in C57BL/6 mouse model assessed as reduction in bacterial count in blood at total dose of 100 mg/kg/day, ip administered as four divided doses after 72 hrs; assay type: functional; set-up: scale not given: the % may be the effect or the level left; details: route intraperitoneal
Oryctolagus cuniculus = assay: Antiinflammatory activity in Acinetobacter baumannii 1327-infected New Zealand rabbit meningitis model assessed as in WBC count at 25 mg/kg, iv after 6 hrs (RVb = 1 cells/ul); assay type: functional

half-life [1]: 0.26 h
half-life [2]: 1.74 h
AUC [3]: 50400 ng·h/mL
Cmax [4]: 23200 ng/mL
Cmax (in vivo): 25400 ng/mL
AUC [5]: 11300 ng·h/mL
Compound: C[C@@H](O)[C@H]1C(=O)N2C(C(=O)O)=C(SCCN=CN)C[C@H]12 [IMIPENEM ANHYDROUS]

Compound: C[C@@H](O)[C@H]1C(=O)N2C(C(=O)O)=C(SCCNC=N)C[C@H]12 [IMIPENEM ANHYDROUS]
Ratio [6]: 0.79
T>MIC [7]: 0 h
MIC (Acinetobacter baumannii [8]): ≥ 64 µg/mL
T>MIC [9]: 0 h
Activity (Acinetobacter baumannii [10]): Active
Ratio [11]: 1.58
MBC (Acinetobacter baumannii [12]): 32 µg/mL (≈ 107 µM)
MIC (Acinetobacter baumannii [12]): 32 µg/mL (≈ 107 µM)
Activity (Acinetobacter baumannii [13]): Active
Activity (Acinetobacter baumannii [14]): Active
Ratio [15]: 0.73
survival at 120 mg/kg/day (Acinetobacter baumannii [16]): 28.6%
MBC (Acinetobacter baumannii [17]): 32 µg/mL (≈ 107 µM)
MIC (Acinetobacter baumannii [17]): 32 µg/mL (≈ 107 µM)
Ratio [18]: 0.35
Activity (Acinetobacter baumannii [19]): Active
Activity (Acinetobacter baumannii [20]): Active
Activity (Acinetobacter baumannii [21]): 30.8%
MBC (Acinetobacter baumannii [22]): 32 µg/mL (≈ 107 µM)
MIC (Acinetobacter baumannii [22]): 32 µg/mL (≈ 107 µM)
MBC (Acinetobacter baumannii [23]): 32 µg/mL (≈ 107 µM)
MIC (Acinetobacter baumannii [23]): 32 µg/mL (≈ 107 µM)

Compound: CO[C@H]1/C=C/O[C@@]2(C)Oc3c(C)c(O)c4c(O)c(c(/C=N/N5CCN(C)CC5)c(O)c4c3C2=O)NC(=O)/C(C)=C\C=C\[C@H](C)[C@H](O)[C@@H](C)[C@@H](O)[C@@H](C)[C@H](OC(C)=O)[C@@H]1C [RIFAMPIN]
Activity (Acinetobacter baumannii [24]): 4.5 log10CFU/ml
Activity (Acinetobacter baumannii [25]): 3.5 log10CFU/ml
Activity (Acinetobacter baumannii [26]): 5.1 log10CFU/ml
Activity (Acinetobacter baumannii [27]): Active
Activity (Acinetobacter baumannii [10]): Active
T>MIC [28]: 7.5 h
MBC (Acinetobacter baumannii [12]): 4 µg/mL (≈ 4.86 µM)
MIC (Acinetobacter baumannii [12]): 4 µg/mL (≈ 4.86 µM)
T>MIC [29]: 6.54 h
Activity (Acinetobacter baumannii [13]): Active
Activity (Acinetobacter baumannii [14]): Active
MBC (Acinetobacter baumannii [17]): 8 µg/mL (≈ 9.72 µM)
MIC (Acinetobacter baumannii [17]): 8 µg/mL (≈ 9.72 µM)
AUC [30]: 24800 ng·h/mL
Cmax [31]: 16600 ng/mL
survival at 100 mg/kg/day (Acinetobacter baumannii [32]): 71.4%
Activity (Acinetobacter baumannii [19]): Active
Cmax [33]: 15800 ng/mL
AUC [34]: 40300 ng·h/mL
Activity (Acinetobacter baumannii [35]): 78.6%
MBC (Acinetobacter baumannii [22]): 4 µg/mL (≈ 4.86 µM)
MIC (Acinetobacter baumannii [22]): 4 µg/mL (≈ 4.86 µM)
Activity (Oryctolagus cuniculus): 8.2%
MBC (Acinetobacter baumannii [23]): 8 µg/mL (≈ 9.72 µM)
MIC (Acinetobacter baumannii [23]): 4 µg/mL (≈ 4.86 µM)
